The values below come from patent US9776997B2, “3-aryl-substituted imidazo[1,2-A]pyridines and their use” (Bayer Pharma Aktiengesellschaft, priority 2013, dated 2017).

“And” between values parts separate entries of the source, which are not always exact repeats. Identical values can stand only once. Counter-ions that a name gives are not always drawn.

The target in the assay is T1, recombinant guanylate cyclase reporter cell line (Rattus norvegicus, UniProt P19686+P20595).
T1 construct: expressed in transfected cells; host or cells: recombinant reporter cell line
T1 sequence (P19686 1-690): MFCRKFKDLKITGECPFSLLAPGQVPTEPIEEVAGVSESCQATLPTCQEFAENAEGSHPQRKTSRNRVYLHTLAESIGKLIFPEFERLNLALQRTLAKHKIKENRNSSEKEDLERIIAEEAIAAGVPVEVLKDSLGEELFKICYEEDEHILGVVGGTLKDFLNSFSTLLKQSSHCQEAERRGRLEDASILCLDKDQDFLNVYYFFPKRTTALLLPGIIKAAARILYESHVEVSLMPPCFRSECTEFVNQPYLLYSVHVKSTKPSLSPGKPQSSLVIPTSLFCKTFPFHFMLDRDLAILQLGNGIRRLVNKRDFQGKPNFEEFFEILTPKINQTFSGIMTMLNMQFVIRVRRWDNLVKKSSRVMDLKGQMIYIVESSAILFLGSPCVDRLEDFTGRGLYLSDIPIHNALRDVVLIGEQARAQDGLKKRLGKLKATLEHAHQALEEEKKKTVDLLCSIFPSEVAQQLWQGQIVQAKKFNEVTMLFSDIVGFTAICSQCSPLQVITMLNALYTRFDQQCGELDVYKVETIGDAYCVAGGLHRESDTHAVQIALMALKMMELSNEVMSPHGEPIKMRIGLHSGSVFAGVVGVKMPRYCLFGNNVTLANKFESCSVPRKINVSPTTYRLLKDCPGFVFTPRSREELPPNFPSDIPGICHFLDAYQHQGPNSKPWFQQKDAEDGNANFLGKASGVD
T1 sequence (P20595 1-619): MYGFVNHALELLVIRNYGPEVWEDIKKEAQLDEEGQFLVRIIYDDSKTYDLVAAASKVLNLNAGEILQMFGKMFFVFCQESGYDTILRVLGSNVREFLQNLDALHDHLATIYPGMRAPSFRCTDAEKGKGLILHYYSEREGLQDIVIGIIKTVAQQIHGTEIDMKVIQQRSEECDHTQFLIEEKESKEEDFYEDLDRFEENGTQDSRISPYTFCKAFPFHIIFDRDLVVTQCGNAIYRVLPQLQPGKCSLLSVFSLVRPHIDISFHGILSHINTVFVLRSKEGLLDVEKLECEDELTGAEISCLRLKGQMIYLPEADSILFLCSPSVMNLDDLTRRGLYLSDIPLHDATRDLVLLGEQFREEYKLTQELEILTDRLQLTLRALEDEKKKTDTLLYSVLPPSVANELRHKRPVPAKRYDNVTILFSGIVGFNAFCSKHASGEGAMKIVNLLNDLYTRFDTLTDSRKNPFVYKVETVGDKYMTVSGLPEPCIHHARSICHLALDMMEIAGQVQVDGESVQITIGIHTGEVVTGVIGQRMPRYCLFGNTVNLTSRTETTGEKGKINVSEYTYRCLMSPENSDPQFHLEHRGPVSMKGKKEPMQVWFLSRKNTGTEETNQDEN
The assay is described as follows: Effect on a recombinant guanylate cyclase reporter cell line. The class given is cell-based. The conditions noted are these: MEC = minimum effective concentration; in some cases mean values for individual determinations. The protocol: B-2. Effect on a Recombinant Guanylate Cyclase Reporter Cell Line
The cellular effect of the inventive compounds is determined using a recombinant guanylate cyclase reporter cell line, as described in F. Wunder et al., Anal. Biochem. 339, 104-112 (2005).
Representative MEC values (MEC=minimum effective concentration) for the inventive compounds are shown in the table below (in some cases as mean values for individual determinations): […]
`CCOCc1nnc(-c2c(C)nc3c(OCC4CCCCC4)cccn23)o1` [Example 66]: the MEC turned out to be 3.0 µM.
Under `COCc1nnc(-c2c(C)nc3c(OCC4CCCCC4)cccn23)o1` [Example 67] stands 3.0 µM; under `COCCc1nnc(-c2c(C)nc3c(OCC4CCCCC4)cccn23)o1` [Example 68], 3.0 µM.
On to `Cc1nc(-c2nnc(-c3c(C)nc4c(OCC5CCCCC5)cccn34)o2)cs1` [Example 69], for which the MEC was found to be 3.0 µM.
Under `CCC(C)c1nnc(-c2c(C)nc3c(OCC4CCCCC4)cccn23)o1` (stereo not shown) [Example 70] stands 3.0 µM.
Under `Cc1nc2c(OCC3CCCCC3)cccn2c1-c1nnc(CN2CCCC2=O)o1` [Example 71] stands 3.0 µM.
In the case of `Cc1nc(C)n(Cc2nnc(-c3c(C)nc4c(OCC5CCCCC5)cccn34)o2)n1` [Example 72] it was 3.0 µM; in that of `Cc1nc2c(OCC3CCCCC3)cccn2c1-c1nnc(C2CCS(=O)(=O)C2)o1` (stereo not shown) [Example 73], 3.0 µM.
`Cc1nc2c(OCC3CCCCC3)cccn2c1-c1nnc(C2CC2)o1` [Example 74]: the MEC stood at 3.0 µM.
With `Cc1cc(OCc2c(F)cccc2F)c2nc(C)c(-c3cncc(C(=O)O)c3)n2c1` [Example 76, 5-{8-[(2,6-Difluorobenzyl)oxy]-2,6-dimethylimidazo[1,2-a]pyridin-3-yl}nicotinic acid trifluoroacetate], the MEC is 3.0 µM.
Under `Cc1cc(OCc2c(F)cccc2F)c2nc(C)c(-c3cncc(C(N)=O)c3)n2c1` [Example 77, 5-{8-[(2,6-Difluorobenzyl)oxy]-2,6-dimethylimidazo[1,2-a]pyridin-3-yl}nicotinamide] stands 0.1 µM; under `Cc1cc(OCc2c(F)cccc2F)c2nc(C)c(-c3cncc(C(=O)NC4CC4)c3)n2c1` [Example 78, N-Cyclopropyl-5-{8-[(2,6-difluorobenzyl)oxy]-2,6-dimethylimidazo[1,2-a]pyridin-3-yl}nicotinamide trifluoroacetate], 0.1 µM; under `Cc1cc(OCc2c(F)cccc2F)c2nc(C)c(-c3nccc(C(N)=O)n3)n2c1` [Example 80, 2-{8-[(2,6-Difluorobenzyl)oxy]-2,6-dimethylimidazo[1,2-a]pyridin-3-yl}pyrimidine-4-carboxamide trifluoroacetate], 0.3 µM.
Regarding `Cc1cc(OCc2c(F)cccc2F)c2nc(C)c(-c3nccc(C(=O)NC4CC4)n3)n2c1` [Example 81, N-Cyclopropyl-2-{8-[(2,6-difluorobenzyl)oxy]-2,6-dimethylimidazo[1,2-a]pyridin-3-yl}pyrimidine-4-carboxamide trifluoroacetate], the MEC was 3.0 µM.
On to `Cc1cc(OCc2c(F)cccc2F)c2nc(C)c(-c3cn[nH]n3)n2c1` [Example 82, 8-[(2,6-difluorobenzyl)oxy]-2,6-dimethyl-3-(2H-1,2,3-triazol-4-yl)imidazo[1,2-a]pyridine], for which the MEC amounted to 0.1 µM.
Under `Cc1cc(OCc2c(F)cccc2F)c2nc(C)c(-c3cnn(CC(C)(C)N)n3)n2c1` [Example 83, 1-(4-{8-[(2,6-Difluorobenzyl)oxy]-2,6-dimethylimidazo[1,2-a]pyridin-3-yl}-2H-1,2,3-triazol-2-yl)-2-methylpropan-2-amine] stands 0.3 µM.
Under `Cc1cc(OCc2ncccc2F)c2nc(C)c(-c3cn[nH]c3)n2c1` [Example 84, 8-[(3-fluoropyridin-2-yl)methoxy]-2,6-dimethyl-3-(1H-pyrazol-4-yl)imidazo[1,2-a]pyridine] stands 1.0 µM.
Under `Cc1cc(OCc2ncccc2F)c2nc(C)c(-c3cnn(CC(C)(C)N)c3)n2c1` [Example 85, 1-(4-{8-[(3-Fluoropyridin-2-yl)methoxy]-2,6-dimethylimidazo[1,2-a]pyridin-3-yl}-1H-pyrazol-1-yl)-2-methylpropan-2-amine] stands 3.0 µM; under `Cc1cc(OCc2c(F)ccc(F)c2F)c2nc(C)c(-c3cn[nH]c3)n2c1` [Example 86, 2,6-dimethyl-3-(1H-pyrazol-4-yl)-8-[(2,3,6-trifluorobenzyl)oxy]imidazo[1,2-a]pyridine], 0.03 µM; under `Cc1cc(OCc2c(F)ccc(F)c2F)c2nc(C)c(-c3cnn(CC(C)(C)N)c3)n2c1` [Example 87, 1-(4-{2,6-Dimethyl-8-[(2,3,6-trifluorobenzyl)oxy]imidazopyridin-3-yl}-1H-pyrazol-1-yl)-2-methylpropan-2-amine], 0.1 µM.
Regarding `Cc1cc(OCc2c(F)cccc2F)c2nc(C)c(-c3cn[nH]c3)n2c1` [Example 88, 8-[(2,6-difluorobenzyl)oxy]-2,6-dimethyl-3-(1H-pyrazol-4-yl)imidazo[1,2-a]pyridine], the MEC stood at 0.01 µM.
Under `Cc1cc(OCc2c(F)cccc2F)c2nc(C)c(-c3cnn(CC(C)(C)N)c3)n2c1` [Example 89, 1-(4-{8-[(2,6-Difluorobenzyl)oxy]-2,6-dimethylimidazo[1,2-a]pyridin-3-yl}-1H-pyrazol-1-yl)-2-methylpropan-2-amine] stands 0.03 µM.
In the case of `Cc1nc2c(OCc3c(F)cccc3F)cccn2c1-c1cnn(CC(C)(C)N)c1` [Example 90, 1-(4-{8-[(2,6-Difluorobenzyl)oxy]-2-methylimidazo[1,2-a]pyridin-3-yl}-1H-pyrazol-1-yl)-2-methylpropan-2-amine] it was 0.3 µM; in that of `Cc1cc(OCc2c(F)cccc2F)c2nc(C)c(-c3cnn(CCO)c3)n2c1` [Example 91, 2-(4-{8-[(2,6-difluorobenzyl)oxy]-2,6-dimethylimidazo[1,2-a]pyridin-3-yl}-1H-pyrazol-1-yl)ethanol], 0.1 µM; in that of `Cc1cc(OCc2c(F)cccc2F)c2nc(C)c(-c3cnn(CCN4CCC(F)(F)CC4)c3)n2c1` [Example 92, 8-[(2,6-Difluorobenzyl)oxy]-3-{1-[2-(4,4-difluoropiperidin-1-yl)ethyl]-1H-pyrazol-4-yl}-2,6-dimethylimidazo[1,2-a]pyridine], 0.03 µM.
Consider `Cc1cc(OCc2c(F)cccc2F)c2nc(C)c(-c3cnn(CCN4CCS(=O)(=O)CC4)c3)n2c1` [Example 93, 8-[(2,6-Difluorobenzyl)oxy]-3-{1-[2-(1,1-dioxidothiomorpholin-4-yl)ethyl]-1H-pyrazol-4-yl}-2,6-dimethylimidazo[1,2-a]pyridine], for which the MEC came out at 0.1 µM.
In the case of `Cc1cc(OCc2c(F)cccc2F)c2nc(C)c(-c3cnn(CCN4CCN(C)CC4)c3)n2c1` [Example 94, 8-[(2,6-Difluorobenzyl)oxy]-2,6-dimethyl-3-{1-[2-(4-methylpiperazin-1-yl)ethyl]-1H-pyrazol-4-yl}imidazo[1,2-a]pyridine] it was 0.3 µM; in that of `Cc1cc(OCc2c(F)cccc2F)c2nc(C)c(-c3cnn(CCN4CC(O)C4)c3)n2c1` [Example 95, 1-[2-(4-{8-[(2,6-Difluorobenzyl)oxy]-2,6-dimethylimidazo[1,2-a]pyridin-3-yl}-1H-pyrazol-1-yl)ethyl]azetidin-3-ol trifluoroacetate], 0.3 µM.
For the compound `Cc1cc(OCc2c(F)cccc2F)c2nc(C)c(-c3cnn(CCS(C)(=O)=O)c3)n2c1` [Example 96, 8-[(2,6-Difluorobenzyl)oxy]-2,6-dimethyl-3-{1-[2-(methylsulphonyl)ethyl]-1H-pyrazol-4-yl}imidazo[1,2-a]pyridine], the MEC was 0.065 µM.
With `Cc1cc(OCc2c(F)cccc2F)c2nc(C)c(-c3cnn(CCOC(N)=O)c3)n2c1` [Example 97, 2-(4-{8-[(2,6-Difluorobenzyl)oxy]-2,6-dimethylimidazo[1,2-a]pyridin-3-yl}-1H-pyrazol-1-yl)ethyl carbamate], the MEC amounted to 0.3 µM.
In the case of `Cc1cc(OCc2c(F)cccc2F)c2nc(C)c(-c3cnn(Cc4cc(C)on4)c3)n2c1` [Example 98, 8-[(2,6-Difluorobenzyl)oxy]-2,6-dimethyl-3-{1-[(5-methyl-1,2-oxazol-3-yl)methyl]-1H-pyrazol-4-yl}imidazo[1,2-a]pyridine] it was 0.03 µM and 3.0 µM.
